Values belong to the compound of their own block, whether it stands above or below them.
Experiments:
Cytochrome P450 3A4 [1] = biological target: T1, Cytochrome P450 3A4 (Homo sapiens, UniProt P08684); experiment: Substrate activity at human CYP3A4 assessed as increase in methyl-prednisolone AUC relative to control; format: ADME
Cytochrome P450 3A4 [2] = biological target: T1, Cytochrome P450 3A4; experiment: Substrate activity at human CYP3A4 assessed as increase in atorvastatin AUC relative to control; format: ADME
Cytochrome P450 3A4 [3] = biological target: T1, Cytochrome P450 3A4; experiment: Substrate activity at human CYP3A4 assessed as increase in midazolam AUC relative to control; format: ADME
Aldehyde oxidase [4] = biological target: T2, Aldehyde oxidase (Homo sapiens, UniProt Q06278); experiment: Substrate activity at aldehyde oxidase in human hepatocytes assessed as enzyme-mediated drug uptake at 1 uM; format: ADME, cell-based
T2 sequence (Q06278 whole entry): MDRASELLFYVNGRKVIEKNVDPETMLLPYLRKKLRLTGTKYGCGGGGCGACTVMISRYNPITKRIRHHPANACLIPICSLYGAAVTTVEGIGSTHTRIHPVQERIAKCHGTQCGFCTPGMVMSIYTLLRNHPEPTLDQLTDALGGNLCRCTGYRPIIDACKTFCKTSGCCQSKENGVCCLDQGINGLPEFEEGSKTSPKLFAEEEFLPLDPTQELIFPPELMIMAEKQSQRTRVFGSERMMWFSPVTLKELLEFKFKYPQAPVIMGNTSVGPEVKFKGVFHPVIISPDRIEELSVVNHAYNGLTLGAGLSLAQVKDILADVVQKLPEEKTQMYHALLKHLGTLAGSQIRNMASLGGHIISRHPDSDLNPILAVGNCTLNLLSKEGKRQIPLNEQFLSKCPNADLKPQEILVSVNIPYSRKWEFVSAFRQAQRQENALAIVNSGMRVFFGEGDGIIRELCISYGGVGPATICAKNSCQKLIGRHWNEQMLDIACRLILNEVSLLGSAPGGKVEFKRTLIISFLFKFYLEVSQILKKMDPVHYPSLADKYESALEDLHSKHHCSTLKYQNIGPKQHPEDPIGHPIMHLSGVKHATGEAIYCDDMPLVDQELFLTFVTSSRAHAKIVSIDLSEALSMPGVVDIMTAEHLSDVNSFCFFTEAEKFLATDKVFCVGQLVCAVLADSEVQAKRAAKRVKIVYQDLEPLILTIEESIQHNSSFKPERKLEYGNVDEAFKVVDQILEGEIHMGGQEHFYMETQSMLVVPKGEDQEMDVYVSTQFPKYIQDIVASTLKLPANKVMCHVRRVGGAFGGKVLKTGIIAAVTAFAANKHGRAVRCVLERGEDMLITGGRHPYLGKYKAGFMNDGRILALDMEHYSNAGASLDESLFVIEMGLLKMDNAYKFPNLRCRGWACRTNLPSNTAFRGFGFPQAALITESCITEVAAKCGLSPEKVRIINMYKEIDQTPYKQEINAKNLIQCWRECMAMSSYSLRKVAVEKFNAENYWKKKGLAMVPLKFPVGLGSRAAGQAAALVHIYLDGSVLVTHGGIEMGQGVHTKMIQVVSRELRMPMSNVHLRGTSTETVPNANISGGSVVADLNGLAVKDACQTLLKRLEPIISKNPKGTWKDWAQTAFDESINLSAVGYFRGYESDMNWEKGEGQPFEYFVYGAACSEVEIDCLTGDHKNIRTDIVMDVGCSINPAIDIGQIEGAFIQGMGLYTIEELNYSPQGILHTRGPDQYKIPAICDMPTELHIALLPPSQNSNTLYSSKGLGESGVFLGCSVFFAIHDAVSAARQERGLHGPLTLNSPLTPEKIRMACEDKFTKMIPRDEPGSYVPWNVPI

Aldehyde oxidase 1 [5] = biological target: T3, Aldehyde oxidase 1 (Cavia porcellus, UniProt H9TB17); experiment: Substrate activity at aldehyde oxidase in guinea pig liver cytosol assessed as enzyme-mediated drug uptake at 1 uM; format: ADME, subcellular
T3 sequence (H9TB17 whole entry): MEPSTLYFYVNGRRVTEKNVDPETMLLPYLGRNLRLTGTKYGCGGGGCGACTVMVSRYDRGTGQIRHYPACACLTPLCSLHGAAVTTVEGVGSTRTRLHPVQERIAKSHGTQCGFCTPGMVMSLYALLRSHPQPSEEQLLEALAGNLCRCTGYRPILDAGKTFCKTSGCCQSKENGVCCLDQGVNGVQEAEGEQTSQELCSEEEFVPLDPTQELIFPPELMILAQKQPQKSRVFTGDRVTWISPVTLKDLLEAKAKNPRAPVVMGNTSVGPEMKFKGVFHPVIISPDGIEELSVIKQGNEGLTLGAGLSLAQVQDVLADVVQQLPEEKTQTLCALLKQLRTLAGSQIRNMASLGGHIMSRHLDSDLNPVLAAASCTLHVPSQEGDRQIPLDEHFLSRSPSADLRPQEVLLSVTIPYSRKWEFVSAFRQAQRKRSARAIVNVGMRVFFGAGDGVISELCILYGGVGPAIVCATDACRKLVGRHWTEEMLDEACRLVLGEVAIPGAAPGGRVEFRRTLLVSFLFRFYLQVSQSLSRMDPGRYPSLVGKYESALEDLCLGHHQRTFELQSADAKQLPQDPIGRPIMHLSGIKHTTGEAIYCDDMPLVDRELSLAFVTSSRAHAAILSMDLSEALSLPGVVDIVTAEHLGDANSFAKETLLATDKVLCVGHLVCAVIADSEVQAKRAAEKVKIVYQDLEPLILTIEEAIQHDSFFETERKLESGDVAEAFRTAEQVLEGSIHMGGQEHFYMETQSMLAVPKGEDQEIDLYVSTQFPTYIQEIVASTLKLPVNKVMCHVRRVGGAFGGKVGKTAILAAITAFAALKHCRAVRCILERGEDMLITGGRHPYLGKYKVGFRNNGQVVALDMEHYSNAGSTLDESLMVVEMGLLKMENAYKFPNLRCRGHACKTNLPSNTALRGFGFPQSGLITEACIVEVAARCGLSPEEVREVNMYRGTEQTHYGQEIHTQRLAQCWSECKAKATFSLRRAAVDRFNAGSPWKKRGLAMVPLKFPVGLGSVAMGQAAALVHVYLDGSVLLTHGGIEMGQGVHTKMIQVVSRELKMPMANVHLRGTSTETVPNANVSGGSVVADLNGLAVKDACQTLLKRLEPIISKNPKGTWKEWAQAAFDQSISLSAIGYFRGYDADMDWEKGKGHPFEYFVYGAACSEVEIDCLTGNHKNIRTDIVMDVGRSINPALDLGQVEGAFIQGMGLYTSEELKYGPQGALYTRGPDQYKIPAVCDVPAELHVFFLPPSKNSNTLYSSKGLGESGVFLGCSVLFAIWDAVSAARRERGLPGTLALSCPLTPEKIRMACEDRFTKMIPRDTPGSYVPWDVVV

Aldehyde oxidase [6] = biological target: T2, Aldehyde oxidase; experiment: Substrate activity at aldehyde oxidase in human liver cytosol assessed as enzyme-mediated drug uptake at 1 uM; format: ADME, subcellular
Aldehyde oxidase 1 [7] = biological target: T4, Aldehyde oxidase 1 (Rattus norvegicus, UniProt Q9Z0U5); experiment: Substrate activity at aldehyde oxidase in rat liver cytosol assessed as enzyme-mediated drug uptake at 1 uM; format: ADME, subcellular
T4 sequence (Q9Z0U5 whole entry): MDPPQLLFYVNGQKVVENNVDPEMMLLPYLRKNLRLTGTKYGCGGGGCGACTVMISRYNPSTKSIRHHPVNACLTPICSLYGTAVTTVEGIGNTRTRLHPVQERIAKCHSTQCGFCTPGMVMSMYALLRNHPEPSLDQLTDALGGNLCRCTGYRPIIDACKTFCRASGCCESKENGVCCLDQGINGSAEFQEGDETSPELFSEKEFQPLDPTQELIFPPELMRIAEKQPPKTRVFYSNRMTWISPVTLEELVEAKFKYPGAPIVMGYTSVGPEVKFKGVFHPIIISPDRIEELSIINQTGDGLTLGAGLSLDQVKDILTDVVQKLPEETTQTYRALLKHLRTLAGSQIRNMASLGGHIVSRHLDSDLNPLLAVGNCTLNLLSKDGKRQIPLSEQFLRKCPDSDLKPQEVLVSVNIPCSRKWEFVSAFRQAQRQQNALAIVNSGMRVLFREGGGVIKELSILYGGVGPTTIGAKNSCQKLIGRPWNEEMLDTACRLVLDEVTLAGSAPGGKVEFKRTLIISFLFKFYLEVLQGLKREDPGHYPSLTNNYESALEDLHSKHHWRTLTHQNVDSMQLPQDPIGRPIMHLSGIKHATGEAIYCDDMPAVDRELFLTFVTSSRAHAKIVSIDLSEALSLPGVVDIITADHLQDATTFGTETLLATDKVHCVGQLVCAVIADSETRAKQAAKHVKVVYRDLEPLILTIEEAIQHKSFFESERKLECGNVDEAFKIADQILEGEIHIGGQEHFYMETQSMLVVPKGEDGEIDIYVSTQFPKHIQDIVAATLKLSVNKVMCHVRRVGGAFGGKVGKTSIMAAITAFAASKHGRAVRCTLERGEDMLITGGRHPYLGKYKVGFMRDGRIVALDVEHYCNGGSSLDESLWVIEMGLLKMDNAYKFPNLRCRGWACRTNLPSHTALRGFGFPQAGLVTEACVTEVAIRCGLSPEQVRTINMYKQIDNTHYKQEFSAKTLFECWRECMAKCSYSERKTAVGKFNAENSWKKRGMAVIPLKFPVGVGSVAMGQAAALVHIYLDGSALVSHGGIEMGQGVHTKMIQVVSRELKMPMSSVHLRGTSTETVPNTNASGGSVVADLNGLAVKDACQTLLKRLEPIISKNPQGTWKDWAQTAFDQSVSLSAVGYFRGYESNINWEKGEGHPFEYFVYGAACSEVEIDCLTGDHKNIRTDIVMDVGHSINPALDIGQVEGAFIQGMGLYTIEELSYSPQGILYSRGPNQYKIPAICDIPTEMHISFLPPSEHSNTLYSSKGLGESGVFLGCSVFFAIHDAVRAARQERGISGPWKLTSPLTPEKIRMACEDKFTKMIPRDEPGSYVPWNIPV

[8] = Clearance in human plasma; format: ADME, cell-free
Aldehyde oxidase [9] = biological target: T2, Aldehyde oxidase; experiment: Substrate activity at aldehyde oxidase in human liver S9 fractions assessed as enzyme-mediated 2-oxo metabolite formation by measuring half life at 1 uM after 10 to 120 mins by liquid chromatography-tandem mass spectrometry; format: ADME, subcellular; conditions: s9, 1 µM
Aldehyde oxidase [10] = biological target: T2, Aldehyde oxidase; experiment: Drug level in human plasma treated with [14C]momelotinib assessed as aldehyde oxidase mediated compound formation at 200 mg, po measured at 24 hrs interval for 504 hrs post dose by liquid scintillation counting; format: ADME, organism-based; conditions: in vivo
[11] = Drug level in Beagle dog plasma treated with [14C]momelotinib at 15 mg/kg, po measured up to 12 hrs by liquid scintillation counting; format: ADME, organism-based, Canis lupus familiaris; conditions: in vivo
Aldehyde oxidase 1 [12] = biological target: T4, Aldehyde oxidase 1; experiment: Drug level in Sprague-Dawley rat plasma treated with [14C]momelotinib assessed as aldehyde oxidase mediated compound formation at 15 mg/kg, po measured up to 48 hrs by liquid scintillation counting; format: ADME, organism-based; conditions: in vivo
[13] = Drug level in human plasma treated with imrecoxib at 100 mg, po measured up to 96 hrs by UPLC/Q-TOF MS analysis; format: ADME, organism-based; conditions: in vivo

T1 sequence (P08684 whole entry): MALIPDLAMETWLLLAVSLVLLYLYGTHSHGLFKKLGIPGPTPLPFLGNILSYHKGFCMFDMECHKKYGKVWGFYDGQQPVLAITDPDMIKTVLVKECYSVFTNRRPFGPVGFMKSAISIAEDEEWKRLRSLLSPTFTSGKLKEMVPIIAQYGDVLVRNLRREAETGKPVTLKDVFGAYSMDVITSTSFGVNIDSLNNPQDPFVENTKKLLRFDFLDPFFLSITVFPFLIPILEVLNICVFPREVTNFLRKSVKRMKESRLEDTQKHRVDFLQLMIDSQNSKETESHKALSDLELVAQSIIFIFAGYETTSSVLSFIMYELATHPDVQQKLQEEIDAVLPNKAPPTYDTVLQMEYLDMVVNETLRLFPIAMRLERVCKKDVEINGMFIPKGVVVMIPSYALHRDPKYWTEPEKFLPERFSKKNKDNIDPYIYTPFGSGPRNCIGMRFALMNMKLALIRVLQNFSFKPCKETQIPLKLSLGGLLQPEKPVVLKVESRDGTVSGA

Structure (SMILES): Cn1cc(-c2ccc3nnc(C(F)(F)c4ccc5ncccc5c4)n3n2)cn1 [JNJ-38877605]
clearance [8]: 0.72 L/h/kg

Structure (SMILES): c1ccc2ncccc2c1 [QUINOLINE]
K (Aldehyde oxidase 1 [5]): 3.6 to 6.1 | K (Aldehyde oxidase [6]): 3.6 to 6.1 | K (Aldehyde oxidase 1 [7]): 3.6 to 6.1

Structure (SMILES): CCCN1CC(c2ccc(S(C)(=O)=O)cc2)=C(c2ccc(C(=O)O)cc2)C1=O
Drug uptake [13]: 68%

The remaining lines, values ahead:

fold change (FC) (Cytochrome P450 3A4 [1]): 4.3 | fold change (FC) (Cytochrome P450 3A4 [2]): 2.7 | fold change (FC) (Cytochrome P450 3A4 [3]): 12
Structure (SMILES): CC[C@@](C)(Nc1ccnc(-c2c[nH]c3ncccc23)n1)C(=O)NCC(F)(F)F [DECERNOTINIB]

K (Aldehyde oxidase [4]): 1.5 | K (Aldehyde oxidase 1 [5]): 3.6 to 6.1 | K (Aldehyde oxidase [6]): 3.6 to 6.1 | K (Aldehyde oxidase 1 [7]): 3.6 to 6.1
Structure (SMILES): CCNC(=O)OC1CCN(c2nncc3cc(OC)c(OC)cc23)CC1 [CARBAZERAN]

t1/2 (Aldehyde oxidase [9]): 2 h
Structure (SMILES): COCCc1c(C(=O)NC(=N)N)cnn1-c1cccc2ncccc12

Drug uptake (Aldehyde oxidase [10]): 64.2% | Drug uptake [11]: < 10% | Drug uptake (Aldehyde oxidase 1 [12]): < 10%
Structure (SMILES): N#CCNC(=O)c1ccc(-c2ccnc(Nc3ccc(N4CCOCC4=O)cc3)n2)cc1

Source: ChEMBL document CHEMBL4321795, “Metabolism by Aldehyde Oxidase: Drug Design and Complementary Approaches to Challenges in Drug Discovery” (J Med Chem, 2019)
